Tests used:
Rattus norvegicus [1] = assay: In vivo Sterol lowering activity at dose as 0.10 % of the diet.; format: functional
[2] = target: T1, Sterol O-acyltransferase 1 (Rattus norvegicus) (UniProt O70536); assay: In vitro inhibitory activity against acyl coenzyme A:cholesterol acyltransferase; parameters: concentration or dose not given beside the values; conditions: concentration not given here
T1 sequence (whole entry): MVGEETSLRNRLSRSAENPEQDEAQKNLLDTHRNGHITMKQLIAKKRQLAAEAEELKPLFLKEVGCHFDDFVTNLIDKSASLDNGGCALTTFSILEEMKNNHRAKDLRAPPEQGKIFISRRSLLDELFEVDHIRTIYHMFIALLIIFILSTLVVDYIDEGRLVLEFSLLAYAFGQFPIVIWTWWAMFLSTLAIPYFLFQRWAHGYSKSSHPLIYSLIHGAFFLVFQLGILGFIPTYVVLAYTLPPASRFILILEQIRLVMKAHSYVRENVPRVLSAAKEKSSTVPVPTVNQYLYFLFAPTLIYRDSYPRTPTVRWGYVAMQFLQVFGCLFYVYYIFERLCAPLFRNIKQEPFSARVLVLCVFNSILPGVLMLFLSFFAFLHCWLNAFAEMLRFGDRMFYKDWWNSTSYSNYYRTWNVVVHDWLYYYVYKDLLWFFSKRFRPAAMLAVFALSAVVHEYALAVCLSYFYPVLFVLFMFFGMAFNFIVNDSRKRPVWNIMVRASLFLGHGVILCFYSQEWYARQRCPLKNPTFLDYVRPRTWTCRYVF

Rattus norvegicus [3] = assay: In vivo Triglyceride lowering activity at dose as 0.10 % of the diet.; format: functional
Rattus norvegicus [4] = assay: In vivo sterol lowering activity at dose of 0.10 % of the diet; format: functional
Rattus norvegicus [5] = assay: In vivo Sterol lowering activity at dose as 0.01% of the diet; format: functional
Rattus norvegicus [6] = assay: In vivo Triglyceride lowering activity at a dose of 0.10 % of the diet; format: functional
Rattus norvegicus [7] = assay: In vivo Triglyceride lowering activity at dose as 0.03 % of the diet; format: functional
Rattus norvegicus [8] = assay: In vivo sterol lowering activity, dosed as 0.03 % of the diet; format: functional
Rattus norvegicus [9] = assay: In vivo Triglyceride lowering activity at dose as 0.01 % of the diet; format: functional

| SMILES | Diet (Rattus norvegicus [1]) [%] | inhibition [2] [%] | Diet (Rattus norvegicus [3]) [%] | serum sterol level, % of control (Rattus norvegicus [4]) [%] | serum sterol level, percent of control (Rattus norvegicus [5]) [%] | serum triglyceride level (% of control) (Rattus norvegicus [6]) [%] | triglyceride lowering activity (Rattus norvegicus [7]) [%] | serum sterol level, percent of control (Rattus norvegicus [8]) [%] | serum triglyceride level (% of control) (Rattus norvegicus [9]) [%] |
| --- | --- | --- | --- | --- | --- | --- | --- | --- | --- |
| NC(=O)CNc1ccc(C(=O)O)cc1 | 100 | 17 | 102 |  |  |  |  |  |  |
| CCOC(=O)c1ccc(NCCCCCCCCCCCCCCCCSC(C)=O)cc1 |  | 0 |  | 93 | 98 | <57 | 75 | 96 | 91 |
| CCOC(=O)c1ccc(NCCCCCCCCCCCCCCCC(=O)OC)cc1 |  | 0 |  | 104 | 105 | 129 | 173 | 110 | 140 |
| CCCCCCCCCCC(Cl)CCCCCNc1ccc(C(=O)OCC)cc1 (centres undefined) |  | 13 |  | 94 | 98 | <53 | 84 | 91 | 82 |
| CCCC[S+]([O-])CCCCCCCCCCCNc1ccc(C(=O)O)cc1 (centres undefined) |  | < 15 |  | 91 | 106 | <66 | 94 | 95 | 87 |
| CCOC(=O)c1ccc(NCCCCCCCCCCC(F)(F)F)cc1 |  | < 24 |  | <87 | <86 | <46 | <61 | 88 | <74 |
| CCCCCCCCCCC(N)CCCCCNc1ccc(C(=O)OCC)cc1 (centres undefined) |  | 0 |  | 84 | 97 | <45 | 70 | 99 | 68 |
| CCCCCCCCCCC(=O)CCCCCNc1ccc(C(=O)OCC)cc1 |  | < 19 |  | 107 | 109 | 81 | 86 | 104 | 103 |
| Br.CCOC(=O)c1ccc(NCCCCCCCCCCCSC(=N)N)cc1 |  | < 73 |  | 98 | 100 | <59 | <69 | 107 | 85 |
| CCOC(=O)c1ccc(NCCCCCCCCCCCCCCC(C)C)cc1 |  | 0 |  | <80 | 87 | <58 | <54 | <85 | <66 |
| CCOC(=O)c1ccc(NCCCCCCCCCCCCCC(C)C)cc1 |  | 9 |  | <80 | 92 | <61 | 84 | <89 | 84 |
| CCCCCCCCCCCCCCCCN(CC(=O)O)c1ccc(C(=O)O)cc1 |  | 15 |  | 93 | 105 | 99 | 100 | 109 | 105 |
| CCOC(=O)c1ccc(NCCCCCCCCCCC[Si](C)(C)C)cc1 |  | 17 |  | <57 | 85 | <78 | 111 | 87 | 113 |
| CCOC(=O)c1ccc(NC(=O)CCCCCCCCCCCCC[Si](C)(C)C)cc1 |  | < 21 |  | 101 | 99 | 97 | 91 | 98 | 99 |
